In the assay the test system is MDA-MB-231. The assay can be described thus: Cell viability (CellTiter-Blue, 72 h), MDA-MB-231 breast cancer cells. The settings on record: for IC50: Homo sapiens; for effect (but only 50% effect): extent of effect reached. The format is cell-based. The protocol:
The cell lines tested in this Example were as follows. Breast cancer: MDA-MB-231; SK-BR3; and BT474. Liver cancer: HepG2.
The phytocannabinoids were tested alone and in various ratioed combinations in media containing final concentrations of 10% and 1% foetal bovine serum at 72 h for the breast and prostate cancer lines and 1% foetal bovine serum for the liver cancer line HepG2.
Each tumour cell line was maintained in vitro in RPMI 1640+10% heat inactivated FBS and 2 mM L-glutamine (growth media) at 37° C. in 5% CO2 and humidified conditions. The cells were harvested, washed, re-suspended into growth medium and counted. The cells were re-suspended into assay media (RPMI 1640+5% heat inactivated FBS+ and 2 mM L-glutamine) at 8×104-2×10^5 cells/ml (dependent upon cell type) and plated into the middle 240 wells of 384 well tissue culture plates (Corning CellBind, black-wall plates) 12.5 μl/well aliquots; 62.5 μl of growth media was aliquoted into the outer wells. There were 4 plates for each cell line. The plates were incubated overnight at 37° C., in 5% humidified CO2.
The phytocannabinoid test compounds were prepared in 100% DMSO vehicle at a stock concentration of 10 mM.
Starting with the 10 mM stock, the compounds were diluted to 125 μM in FBS-free growth media.
These were diluted in FBS-free growth media to 125 μM before serial dilution.
5 volumes of CBD 10 mM stock was added to 1 volume of the other agent (also at 10 mM) and 4 volumes of DMSO. This made a final concentration of 5 mM:1 mM. This was then diluted in FBS-free growth media so the top concentration of CBD would be 125 μM (before serial dilution). Each compound and compound combination stock was serially diluted in FBS-free growth media (containing 1.25% v/v DMSO) from 125 μM to 41.7, 13.89, 4.63, 1.54, 0.514, 0.171, 0.057 and 0.019 μM (1.25× final assay concentrations). Vehicle was prepared at equivalent dilutions in assay media. The top final concentration of compound in the assay was always 100 μM so CBD5:1CBG was 100 μM CBD and 20 μM CBG.
Taxotere SOC was prepared at a stock concentration of 1 mM in 100% DMSO. Taxotere was serially diluted from the stock solution into FBS-free growth media to 12.5 μM, then serially diluted in FBS-free growth media containing 1.25% DMSO to 4.17, 1.39, 0.46, 0.154, 0.051, 0.017, 0.006, 0.002 μM (1.25× final assay concentrations).
The plates were incubated for 72 h at 37° C. in 5% humidified CO2. To develop the plates, at 72 h, 10 μl of CellTiter-Blue™ reagent was added to each test/blank well. The plates were incubated at 37° C., 5% humidified CO2. Fluorescence was measured using a Flex II Station plate reader (570 nm excitation wavelength, 600 nm emission wavelength, 590 nm cut-off) after 3 h.
The experimental conditions were the same as the experiment above, with the same compound dilutions and volumes for plating but using growth media containing 10% FBS rather than FBS-free media.
The raw data values expressed in relative fluorescent units were normalised to the vehicle for each individual plate and any reduction in fluorescence indicated a decrease in viability.
The data were analysed in GraphPad PRISM using a non-linear sigmoidal plot with variable slope (asymmetric five point linear regression) and where possible an IC50 value for each single compound and combination was generated.
For the calculation, raw data values expressed in relative fluorescent units were normalised to the vehicle for each individual plate (set as 0%) and the reduction in fluorescence calculated as an increase in inhibition of viability.
The data was formatted in Excel for each assay plate so that the average effect at each concentration for each separate phytocannabinoid and each of the combinations could be determined.
The mean data at each concentration of CBD was imported into the analysis package Calcusyn. Calcusyn software was designed by M. Hayball and C.
Background: Resazurin is reduced to fluorescent resorufin, in cell work by metabolically active cells.

Where [1] appears, read: MDA-MB-231, 72 h, read-out: IC50 values, MDA-MB-231, 1% FBS, 72 h.
Setting [2] is: MDA-MB-231, 72 h, read-out: IC50 values, MDA-MB-231, 10% FBS, 72 h.
The mark [3] stands for this setting: MDA-MB-231, read-out: Dm (median effect dose), MDA-MB-231, 1% FBS, Calcusyn median-effect analysis.

Where two headings read alike, the source gives them in different places.

In the case of `CCCCCc1cc(O)c(C/C=C(\C)CCC=C(C)C)c(O)c1` [CBG, Cannabigerol], the IC50 reads like this: under setting [1], 4.1 µM; under setting [2], 29 µM; under setting [3], 14.2 µM.
For the compound `C=C(C)[C@@H]1CCC(C)=C[C@H]1c1c(O)cc(CCCCC)c(C(=O)O)c1O` [CBDA, Cannabidiolic acid], the IC50 by setting is: under setting [1], 30 µM; under setting [3], 20 µM. Moreover, where the note is “MDA-MB-231, 10% FBS, 72 h”, the IC50 values entry is given as “NE at 100 μM”.
With `C=C(C)[C@@H]1CCC(C)=C[C@H]1c1c(O)cc(CCCCC)cc1O` [CBD, Cannabidiol], the IC50 by setting is: under setting [1], 7.4 µM; under setting [2], 27 µM; under setting [3], 5.61 µM.
As to `CCCCCc1cc(O)c(C/C=C(\C)CCC=C(C)C)c(O)c1C(=O)O` [CBGA, Cannabigerolic acid], the IC50 runs as follows: under setting [1], 16 µM; under setting [2], about 100 µM; under setting [3], 43.5 µM.
For `CC(=O)O[C@@]12CO[C@@H]1C[C@H](O)[C@@]1(C)C(=O)[C@H](O)C3=C(C)[C@@H](OC(=O)[C@H](O)[C@@H](NC(=O)OC(C)(C)C)c4ccccc4)C[C@@](O)([C@@H](OC(=O)c4ccccc4)[C@H]21)C3(C)C` [Taxotere, Docetaxel, reference compound], the IC50 is under 0.001 µM under setting [1] and under 0.001 µM under setting [2]. Moreover, the “effect (but only 50% effect)” value reads like this: (MDA-MB-231, 1% FBS) “only 50%”; (MDA-MB-231, 10% FBS) “only 50%”.
Take `CCCc1cc(O)c2c(c1)OC(C)(C)[C@@H]1CCC(C)=C[C@@H]21` [THCV, Tetrahydrocannabivarin]: the IC50 reads like this: under setting [1], 14.4 µM; under setting [2], 36 µM; under setting [3], 39 µM.

The values above are taken from patent US9962341B2, “Active pharmaceutical ingredient (API) comprising cannabinoids for use in the treatment of cancer” (GW Pharma Limited, priority 2014, dated 2018).
